Measured values as given in US20120088662A1, “FUNGICIDAL MIXTURES” (BASF SE, priority 2009, published 2012).
Read-outs that look alike come from different tables or passages of the source.

How the values were obtained:
Botrytis cinerea [1] = test: Use Example M2: activity against gray mold pathogen in the microtiter test (Botrci); format: cell-based; details: single active compound
Septoria tritici [2] = test: Use Example M4: activity against Septoria leaf spot pathogen in the microtiter test (Septtr); format: cell-based; details: alone
Pyricularia oryzae = format: cell-based; details: alone
Pyrenophora teres = test: Use Example M5: activity against Pyrenophora teres in the microtiter test (Pymte); format: cell-based; details: alone
Phytophthora infestans [3] = format: cell-based; details: single active compound
Puccinia recondita = test: Use Example G4: protective activity against brown rust of wheat (Puccrt P1); format: in vivo; details: alone, untreated control 79 % infection
Protocol: (§1) The active compounds were prepared separately or jointly as a stock solution with 25 mg of active compound which was made up to 10 ml using a mixture of acetone and/or DMSO and the emulsifier Wettol EM 31 (wetting agent having emulsifying and dispersing action based on ethoxylated alkylphenols) in a volume ratio of solvent:emulsifier of 99:1. The mixture was then made up with water to 100 ml. This stock solution was diluted with the solvent/emulsifier/water mixture described to give the active compound concentration stated below. Alternatively, the active compounds were used as a commercial finished formulation and diluted with water to the stated active compound concentration.
(§2) The visually determined values for the percentage of infected leaf area were initially converted into a mean value and then converted into efficancies in % of the untreated control. An efficacy of 0 means the same degree of infection as in the untreated control, an efficacy of 100 means 0% infection.
Leaves of potted wheat seedlings were sprayed to runoff point with an aqueous suspension having the active compound concentration stated below. The next day, the treated plants were inoculated with a spore suspension of brown rust of wheat (Puccinia recondita). The plants were then placed in a chamber of high atmospheric humidity (90 to 95%) at 20 to 24° C. for 24 hours. During this time, the spores germinated and the germ tubes penetrated into the leaf tissue. The next day, the test plants were returned to the greenhouse and cultivated at temperatures between 20 and 24° C. and 65 to 70% relative atmospheric humidity for a further 7 days. The extent of the rust fungus development on the leaves was then determined visually.

Septoria tritici [4] = test: Use Example G5: protective activity against Septoria leaf blotch of wheat (Septtr P1); format: in vivo; details: alone, untreated control 83 % infection
Protocol: as §1, §2
(§3) Leaves of potted wheat seedlings were sprayed to runoff point with an aqueous suspension having the active compound concentration stated below. 24 hours after the spray coating had dried on, they were inoculated with an aqueous spore suspension of Septoria tritici. The test plants were then placed in a greenhouse at temperatures between 18 and 22° C. and a relative atmospheric humidity close to 100% for 4 days and then at temperatures between 18 and 22° C. and an atmospheric humidity of about 70%. After 21 days, the extent of the development of the disease was determined visually in % infection of the total leaf area.

Septoria tritici [5] = test: Comparison No. C1: activity against Septoria leaf blotch pathogen in the microtiter test (Septtr); details: relative growth, active compound-free control = 100%
Protocol: An aqueous malt-based spore suspension of Septoria tritici was then added. The plates were placed in a water vapor-saturated chamber at a temperature of 18° C. Using an absorption photometer, the MTPs were measured at 405 nm on day 7 after the innoculation.

Botrytis cinerea [6] = test: Use Example G1: gray mold on bell pepper leaves, protective application (Botrci P1); format: in vivo; details: 1 ppm, alone; untreated control 86 % infection
Protocol: as §1, §2
Bell pepper seedlings were after 2-3 leaves were well developed, sprayed to runoff point with an aqueous suspension having the active compound concentration stated below. The next day, the treated plants were inoculated with a spore suspension of Botrytis cinerea in a 2% biomalt solution. […] After 5 days, the extent of the fungal infection on the leaves could be determined visually in %.

Phytophthora infestans [7] = format: in vivo; details: alone, untreated control 86 % infection
Phakopsora pachyrhizi [8] = test: Use Example G3: curative activity against soybean rust (Phakpa K4); format: in vivo; details: alone, untreated control 76 % infection
Protocol: as §1, §2
Leaves of potted soybean seedlings were inoculated with a spore suspension of soybean rust (Phakpsora pachyrhizi). The pots were then placed in a chamber of high atmospheric humidity (90 to 95%) and 20 to 24° C. for 24 hours. During this time, the spores germinated and the germ tubes penetrated into the leaf tissue. The infected plants were then cultivated further in a greenhouse at temperatures between 23 and 27° C. and 60 to 80% relative atmospheric humidity. After three days, the plants were sprayed to runoff point with the active compound solution described above at the active compound concentration stated below. After the spray coating had dried on, the test plants were cultivated in a greenhouse at temperatures between 23 and 27° C. and 60 to 80% relative atmospheric humidity for a further 10 days. The extent of the rust fungus development on the leaves was then determined visually in % infection.

Septoria tritici [9] = test: Use Example G6: protective activity against Septoria leaf blotch of wheat (Septtr P1), % infection; format: in vivo; details: 150 ppm, protective spray, after 21 days, untreated control 60% infected
Protocol: as §1, §3

Phakopsora pachyrhizi [10] = test: Use Example G7: curative activity against soybean rust (Phakpa K3), % infection; format: in vivo; details: 150 ppm, curative spray two days after inoculation, further 10 days, untreated control 80% infected
Protocol: as §1
Leaves of potted soybean seedlings were inoculated with a spore suspension of soybean rust (Phakpsora pachyrhizi). The pots were then placed in a chamber of high atmospheric humidity (90 to 95%) and 20 to 24° C. for 24 hours. During this time, the spores germinated and the germ tubes penetrated into the leaf tissue. The infected plants were then cultivated further in a greenhouse at temperatures between 23 and 27° C. and 60 to 80% relative atmospheric humidity. […] The extent of the rust fungus development on the leaves was then determined visually in % infection.

CNC(=O)/C(=N/OC)c1ccccc1CO/N=C(C)/C(=N/OC)C(/C)=N/OC [orysastrobin]
Observed effect (Botrytis cinerea [1]; 0.016 ppm): 1% | Observed effect (Botrytis cinerea [1]; 1 ppm): 2% | Observed effect (Septoria tritici [2]; ternary table, 0.004 ppm): 2 | Observed effect (Pyricularia oryzae; ternary table, 0.016 ppm): 2

COC(=O)Nc1nc2ccccc2[nH]1 [carbendazim]
Observed effect (Pyrenophora teres; 0.004 ppm): 0%

O=C(Nc1ccccc1-c1ccc(Cl)cc1)c1cccnc1Cl [boscalid]
Observed effect (Phytophthora infestans [3]; 4 ppm): 4% | Observed effect (Phytophthora infestans [3]; 16 ppm): 20% | Observed effect (Puccinia recondita; 0.063 ppm): 0% | Observed effect (Septoria tritici [4]; 4 ppm): 10% | Observed effect (Septoria tritici [2]; ternary table, 0.063 ppm): 10 | Observed effect (Pyricularia oryzae; 16 ppm): 8 | Observed effect (Pyricularia oryzae; ternary table, 4 ppm): 0

S=c1[nH]cnn1C[C@]1(c2ccccc2)O[C@H]1c1ccccc1Cl (relative stereo) [I-12, 2-[trans-3-(2-chlorophenyl)-2-phenyloxiranylmethyl]-2,4-dihydro-[1,2,4]triazole-3-thione]
Observed effect (Pyricularia oryzae; 16 ppm): 7 | Observed effect (Pyricularia oryzae; 63 ppm): 16

Fc1ccc([C@@]2(Cn3ncnc3S)O[C@H]2c2ccccc2F)cc1 (relative stereo) [I-8, trans-2-[2-(4-fluorophenyl)-3-(2-fluorophenyl)oxiranylmethyl]-2H-[1,2,4]triazole-3-thiole]
Observed effect (Botrytis cinerea [1]; 63 ppm): 24%

CCSc1ncnn1C[C@]1(c2ccc(F)cc2)O[C@H]1c1ccccc1Cl (relative stereo) [I-18, trans-1-[3-(2-chlorophenyl)-2-(4-fluorophenyl)oxiranylmethyl]-5-ethylsulfanyl-1H-[1,2,4]triazole]
Growth in % at 8 ppm for Septtr (Septoria tritici [5]): 39%

CNC(=O)/C(=N/OC)c1ccccc1COc1cc(C)ccc1C [dimoxystrobin]
Observed effect (Pyrenophora teres; 0.004 ppm): 4%

COC(=O)N(OC)c1ccccc1COc1ccn(-c2ccc(Cl)cc2)n1 [pyraclostrobin]
Observed effect (Phytophthora infestans [3]; 16 ppm): 16% | Observed effect (Botrytis cinerea [6]): 1%

COC(=O)NC(=S)Nc1ccccc1NC(=S)NC(=O)OC [thiophanate-methyl]
Observed effect (Phytophthora infestans [7]; 63 ppm): 0% | Observed effect (Phakopsora pachyrhizi [8]; 4 ppm): 8%

Fc1ccccc1[C@@]1(Cn2nc[nH]c2=S)O[C@H]1c1ccccc1Cl (relative stereo) [I-14, 2-[trans-3-(2-chlorophenyl)-2-(2-fluorophenyl)oxiranylmethyl]-2,4-dihydro-[1,2,4]triazole-3-thione]
Observed effect (Phytophthora infestans [3]; 16 ppm): 26% | Observed effect (Septoria tritici [2]; 1 ppm): 0 | Observed effect (Pyricularia oryzae; 16 ppm): 18

Cc1cc(C)nc(Nc2ccccc2)n1 [pyrimethanil]
Observed effect (Pyricularia oryzae; 4 ppm): 47

Fc1ccc([C@]2(Cn3cncn3)O[C@H]2c2ccccc2Cl)cc1 (racemic) [epoxiconazole]
Observed effect (Puccinia recondita; 0.016 ppm): 0% | Observed effect (Septoria tritici [4]; 1 ppm): 24% | Observed effect (Pyrenophora teres; 0.004 ppm): 0% | Observed effect (Pyrenophora teres; 0.016 ppm): 0% | Observed effect (Septoria tritici [2]; 0.004 ppm): 6 | Observed effect (Septoria tritici [2]; 0.016 ppm): 22 | Observed effect (Pyricularia oryzae; ternary table, 0.016 ppm): 0 | Observed effect (Phytophthora infestans [7]; 1 ppm): 1% | Observed effect (Phakopsora pachyrhizi [8]; 0.063 ppm): 63%

[Na+].[S-]c1ncnn1C[C@]1(c2ccccc2Cl)O[C@H]1c1ccccc1Cl (relative stereo) [I-10, sodium 2-[trans-2,3-bis-(2-chlorophenyl)oxiranylmethyl]-2H-[1,2,4]triazole-3-thiolate]
Observed effect (Phytophthora infestans [3]; 16 ppm): 30% | Observed effect (Pyricularia oryzae; 16 ppm): 35

CSc1ncnn1CC1(c2ccc(F)cc2)OC1c1ccccc1Cl (stereo not shown) [Prior art (WO 96/38440)]
Growth in % at 8 ppm for Septtr (Septoria tritici [5]): 65%

CC(=O)Sc1ncnn1C[C@]1(c2ccc(F)cc2)O[C@H]1c1ccccc1Cl (relative stereo) [I-3, trans-S-{2-[3-(2-chlorophenyl)-2-(4-fluorophenyl)oxiranylmethyl]-2H-[1,2,4]triazol-3-yl}thioacetate]
Observed effect (Phytophthora infestans [3]; 63 ppm): 43% | Observed effect (Botrytis cinerea [1]; 16 ppm): 15% | Observed effect (Septoria tritici [2]; 1 ppm): 3 | Observed effect (Pyricularia oryzae; 16 ppm): 8 | Observed effect (Pyricularia oryzae; 63 ppm): 62

CO/N=C(/C(=O)OC)c1ccccc1COc1ccccc1C [kresoxim-methyl]
Observed effect (Phakopsora pachyrhizi [8]; 1 ppm): 39%

N#Cc1c(Cl)c(Cl)c(Cl)c(C#N)c1Cl [chlorothalonil]
Observed effect (Septoria tritici [2]; 0.063 ppm): 3 | Observed effect (Septoria tritici [2]; ternary table, 0.063 ppm): 3 | Observed effect (Pyricularia oryzae; ternary table, 0.063 ppm): 4

N#CSc1ncnn1C[C@]1(c2ccc(F)cc2)O[C@H]1c1ccccc1Cl (relative stereo) [I-6, trans-1-[3-(2-chlorophenyl)-2-(4-fluorophenyl)oxiranylmethyl]-5-thiocyanato-1H-[1,2,4]triazole]
infection (% infection of the total leaf area) (Septoria tritici [9]): 0% | infection (rust fungus development on the leaves, % infection) (Phakopsora pachyrhizi [10]): 0%

Fc1ccc([C@@]2(Cn3nc[nH]c3=S)O[C@H]2c2ccccc2Cl)cc1 (relative stereo) [I-1, trans-2-[3-(2-chlorophenyl)-2-(4-fluorophenyl)oxiranylmethyl]-2,4-dihydro-[1,2,4]triazole-3-thione]
Observed effect (Puccinia recondita; 0.016 ppm): 0% | Observed effect (Septoria tritici [4]; 1 ppm): 8% | Observed effect (Pyrenophora teres; 0.004 ppm): 2% | Observed effect (Pyrenophora teres; 0.016 ppm): 5% | Observed effect (Pyricularia oryzae; 16 ppm): 3 | Observed effect (Phytophthora infestans [7]; 1 ppm): 0% | Observed effect (Phakopsora pachyrhizi [8]; 0.063 ppm): 17%
